Assays:
human S1P1 receptor = assay: Determination of S1P1 receptor activation (intracellular calcium release, FLIPR, CHO cells); type: cell-based; conditions: compound at 10 μM; in percent of activation by 100 nM S1P
Procedure: Determination of S1P1 Receptor Activation
The activation of the S1P1 receptor by the chemical compounds described in the present invention disclosure was determined via the S1P1 receptor-mediated release of intracellular calcium.
The CHO (chinese hamster ovarian) cells used here was stably overexpressed with the human S1P1 receptor (Flp-In System, Invitrogen). In order to amplify the signal transduction of the receptor in the direction of a cellular calcium response, a receptor modified at the C terminus was used, which contained the sequence of a modified G protein (Gαi4qi4) (WO 02/04665). The changes in intracellular calcium were determined by means of the calcium-sensitive fluorescent dye Fluo-4 (Invitrogen) in an appropriate plate reader (FLIPR, […]).
To prepare the measurement, the cells were sown in 96-well plates (Becton Dickinson, Biocoat cellware, poly-D-lysine coated, #354640) with 40 000 cells per cavity between 18 and 24 hours before the calcium measurement. For the intervening period, the cells were cultivated in an incubator under 95% air humidity with 5% CO2 gas in a medium based on F-12 Glutamax (Gibco #31765), which was additionally supplemented with 1% (vol/vol) penicillin/streptomycin (PAN, #P06-07100), 10% (vol/vol) fetal calf serum (Hyclone charcoal/dextran treated FBS #SH30068) and Hygromycin B (final concentration 300 mg/l; Invitrogen, #10687-010).
For calcium measurement, the cells were laden beforehand with the acetoxymethyl ester derivative of the Fluo-4 dye (Fluo-4 AM, Invitrogen, #F14202) for 60 min. During the loading, which took place in the incubator under the conditions specified above, the cells were incubated with an HBSS buffer (Hanks' Balanced Salt Solution; Invitrogen #14065049) which had been supplemented with Fluo-4 AM (acetoxymethyl ester of Fluo-4; 2 μM; all figures are based on final concentrations), Pluronic® F-127 (0.05% vol/vol; Invitrogen, #P-3000 MP), HEPES (20 mM; Gibco #15630), probenecid (2.5 mM; Sigma #P-8761) and bovine serum albumin (0.05%; Sigma #A-6003). This buffer was finally adjusted to a pH of 7.5 with sodium hydroxide.
During the loading with Fluo-4, the acetoxymethyl ester is cleaved by intracellular esterases, and so there is intracellular accumulation of the dye. The loading of the cells was ended by washing three times (Tecan, Power Washer) with a wash buffer.
The wash buffer was also used for the later fluorescence-based calcium measurement. In this case, the laden and washed cells were stimulated with the compounds described (dissolved in DMSO; maximum final DMSO concentration 0.3%) in different concentrations. […]
All measurements were conducted as triplicates, and the individual values thereof were averaged for further calculation. The percentage activation of the S1P1 receptor, which was caused in some cases by the compounds described, was calculated using the S1P-related calcium response (positive control). Before this calculation, a background correction took place, by subtracting the value of the base control (DMSO control) from all other fluorescence values detected.
Using the specific cellular fluorescence response at different concentrations of the compounds used, concentrations were calculated at which the cell response was at half maximum (EC50 value). […] Here too, the percentage activation of the receptor was calculated using the positive control (S1P, 100 nM) and base control (DMSO control).

GPCR GPR40 (human) = molecular target: T1, GPCR GPR40 (human) (Homo sapiens, UniProt O14842); assay: In vitro FLIPR assay with recombinant HEK293 cells which express the GPCR GPR40 (intracellular Ca2+); type: cell-based; conditions: recombinant HEK293 cells expressing human GPR40; 100% = 10 μM linoleic acid reference agonist; read-out: hGPR40 EC50
T1 construct: expressed in transfected cells; host or cells: HEK293
Procedure: In Vitro FLIPR Assay with Recombinant Cells which Express the GPCR GPR40
Function-testing assays were performed by means of the FLIPR technique (“Fluorescence Imaging Plate Reader”, Molecular Devices Corp.). For this purpose, agonist-induced changes were determined in the intracellular concentration of Ca^2+ in recombinant HEK293 cells which expressed the GPCR GPR40 (human).
For the studies, cells were sown into 96-well microtiter plates (60 000 cells/well) and left to grow overnight. The medium was removed and the cells were incubated in buffer which contained the fluorescent dye Fluo-4. After this loading with dye, the cells were washed, test substance was added and changes were measured in the intracellular Ca^2+ concentration in the FLIPR instrument. Results were presented as the percentage change relative to the control (0%: no test substance added; 100%: 10 μM linoleic acid reference agonist added) and used for calculation of dose/efficacy curves, and the EC50 values were thus determined. The mean effective concentration (EC50) is the dose at which a half-maximum effect is observed.

T1 sequence (O14842 whole entry): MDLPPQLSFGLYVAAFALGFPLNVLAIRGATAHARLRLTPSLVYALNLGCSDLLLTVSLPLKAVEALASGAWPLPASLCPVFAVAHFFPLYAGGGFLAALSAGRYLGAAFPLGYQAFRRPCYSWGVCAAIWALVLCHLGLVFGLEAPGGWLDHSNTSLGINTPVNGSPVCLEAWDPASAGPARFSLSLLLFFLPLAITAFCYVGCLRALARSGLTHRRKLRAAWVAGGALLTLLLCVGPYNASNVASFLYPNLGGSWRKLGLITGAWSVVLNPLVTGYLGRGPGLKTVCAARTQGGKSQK

EC50 (GPCR GPR40 (human)) [nM]	Structure (SMILES)	S1P1 receptor activation, % activation (human S1P1 receptor) [%]
2290	CC#C[C@H](CC(=O)O)c1ccc(NC(=O)C(=O)Nc2cc(C(F)(F)F)ccc2Cl)cc1 [compound 10, (R)-3-{4-[(2-chloro-5-trifluoromethylphenylaminooxalyl)amino]phenyl}hex-4-ynoic acid, reference compound]	–
1780	CC#C[C@H](CC(=O)O)c1ccc(NC(=O)C(=O)Nc2cc(C(F)(F)F)ccc2C)cc1 [compound 8, (R)-3-{4-[(2-methyl-5-trifluoromethylphenylaminooxalyl)amino]phenyl}hex-4-ynoic acid, reference compound]	–
1550	CC#C[C@H](CC(=O)O)c1ccc(NC(=O)C(=O)Nc2cccc(C(C)(C)C)c2)cc1 [compound 7, (R)-3-{4-[(3-tert-butylphenylaminooxalyl)amino]phenyl}hex-4-ynoic acid, reference compound]	–
2070	CC#C[C@H](CC(=O)O)c1ccc(NC(=O)C(=O)Nc2cccc(C(C)C)c2)cc1 [compound 9, (R)-3-{4-[(3-isopropylphenylaminooxalyl)amino]phenyl}hex-4-ynoic acid, reference compound]	–

Continued, compound first:

Structure (SMILES)	EC50 (GPCR GPR40 (human)) [nM]	S1P1 receptor activation, % activation (human S1P1 receptor) [%]
CC#C[C@@H](CC(=O)O)c1ccc(NC(=O)C(=O)Nc2cc(C(F)(F)F)ccc2Cl)cc1 [Example 5, (S)-3-{4-[(2-chloro-5-trifluoromethylphenylaminooxalyl)amino]phenyl}hex-4-ynoic acid]	2	0
CC#C[C@@H](CC(=O)O)c1ccc(NC(=O)C(=O)Nc2cc(C(F)(F)F)ccc2C)cc1 [Example 3, (S)-3-{4-[(2-methyl-5-trifluoromethylphenylaminooxalyl)amino]phenyl}hex-4-ynoic acid]	4	1
CC#C[C@@H](CC(=O)O)c1ccc(NC(=O)C(=O)Nc2cccc(C(C)(C)C)c2)cc1 [Example 2, (S)-3-{4-[(3-tert-butylphenylaminooxalyl)amino]phenyl}hex-4-ynoic acid]	2	1
CC#C[C@H](CC(=O)O)c1ccc(NC(=O)C(=O)Nc2cc(C(F)(F)F)ccc2C(F)(F)F)cc1 [compound 6, (R)-3-{4-[(2,5-bis(trifluoromethyl)phenylaminooxalyl)amino]phenyl}hex-4-ynoic acid, reference compound]	734	–
CC#C[C@@H](CC(=O)O)c1ccc(NC(=O)C(=O)Nc2cccc(C(C)C)c2)cc1 [Example 4, (S)-3-{4-[(3-isopropylphenylaminooxalyl)amino]phenyl}hex-4-ynoic acid]	7	0
CC#C[C@@H](CC(=O)O)c1ccc(NC(=O)C(=O)Nc2cc(C(F)(F)F)ccc2C(F)(F)F)cc1 [Example 1, (S)-3-{4-[(2,5-bis(trifluoromethyl)phenylaminooxalyl)amino]phenyl}hex-4-ynoic acid]	0.4	0

From US20130172248A1, “3-[4-(PHENYLAMINOOXALYLAMINO)PHENYL]HEX-4-YNOIC ACIDS, PROCESS FOR PREPARATION THEREOF AND USE THEREOF AS A MEDICAMENT” (priority 2012, published 2013)
